The results in this text go back to US10005792B2, “Aminoindane-, aminotetrahydronaphthalene- and aminobenzocyclobutane-derived PRMT5-inhibitors” (CTXT PTY LTD, priority 2014, dated 2018).

The IC50 is the midpoint of a concentration-inhibition curve. Read a high IC50 as weaker potency in that assay.

Where a name gives a salt, the structure may show the parent alone.

The target of the assay is Full-length PRMT5 enzyme co-expressed with MEP50 (Homo sapiens (Human), UniProt O14744). As to the kind of experiment: Revised PRMT5 Biochemical Assay. Conditions: 1 μM histone H4 derived peptide substrate, 1 μM S-Adenosyl methionine, 4 hours at 37 degree Celsius, Transcreener EPIGEN fluorescence polarisation. As for the experimental part: Compounds of the invention may be tested for in vitro activity in the following assay: A histone H4 derived peptide is used as substrate (amino acid sequence: […]NH2). Full-length PRMT5 enzyme (NCBI Reference sequence NP-006100.2) was co-expressed with Hiss-MEP50 in insect cells and purified via Nickel immobilized metal affinity and gel filtration chromatography (“the enzyme”).
The 6 μL reactions are run in Greiner brand black 384-well low volume assay plates. All reactions contained assay buffer (phosphate buffered saline, 0.01% (v/v) Tween-20, 0.01% (w/v) albumin from chicken egg white, 1 mM Dithiothreitol, 1 μM peptide substrate, 1 μM S-Adenosyl methionine, and 15 ng/reaction enzyme, with the enzyme being omitted from negative control reactions. Compounds were added in a volume of 100 nL from dilution series prepared in DMSO, positive and negative control reactions receiving the same volume DMSO without compound. The plates were sealed with adhesive seals and incubated for 4 hours at 37 degree Celsius. Reaction progress was measured using the Transcreener™ EPIGEN methyltransferase assay (BellBrook Labs, Madison, Wis.) as recommended by the manufacturer. To each reaction 2 μL detection mix were added, containing coupling enzymes, fluorescence polarisation tracer, and AMP antibody. Plates were incubated for 90 minutes before being read on a PerkinElmer EnVision™ plate reader in fluorescence polarisation mode. IC50 values were obtained from the raw readings by calculating percent inhibition (% I) for each reaction relative to controls on the same plate (% I=(I−CN)/(CP−CN) where CN/CP are the averages of the negative/positive reactions, respectively), then fitting the % I data vs. compound concentration [I] to % I=([…]) where A is the lower asymptote, B is the upper asymptote, C is the IC50 value, and D is the slope.
(In general: Fluorescence polarisation rises when a labelled molecule tumbles more slowly, as on binding a larger partner.)

Sequence of Full-length PRMT5 enzyme co-expressed with MEP50 (O14744 whole entry): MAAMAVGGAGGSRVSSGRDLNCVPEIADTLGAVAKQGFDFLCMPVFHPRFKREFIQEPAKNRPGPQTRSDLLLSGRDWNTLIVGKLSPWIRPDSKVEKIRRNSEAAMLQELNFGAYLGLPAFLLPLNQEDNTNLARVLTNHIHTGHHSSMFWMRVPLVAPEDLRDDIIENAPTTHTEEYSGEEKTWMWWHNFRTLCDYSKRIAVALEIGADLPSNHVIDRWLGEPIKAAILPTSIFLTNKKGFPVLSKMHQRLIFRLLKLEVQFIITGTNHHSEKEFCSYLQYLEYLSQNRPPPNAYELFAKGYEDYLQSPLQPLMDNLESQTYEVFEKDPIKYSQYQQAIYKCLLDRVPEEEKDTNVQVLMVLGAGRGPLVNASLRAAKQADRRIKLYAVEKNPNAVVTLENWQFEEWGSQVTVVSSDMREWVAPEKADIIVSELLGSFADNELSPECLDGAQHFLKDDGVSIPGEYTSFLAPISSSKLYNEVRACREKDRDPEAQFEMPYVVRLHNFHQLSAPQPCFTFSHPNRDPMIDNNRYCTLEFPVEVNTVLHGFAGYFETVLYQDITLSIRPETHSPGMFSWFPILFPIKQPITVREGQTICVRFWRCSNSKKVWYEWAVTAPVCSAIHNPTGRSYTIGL
Sequence of Full-length PRMT5 enzyme co-expressed with MEP50 (Q9BQA1 whole entry partner): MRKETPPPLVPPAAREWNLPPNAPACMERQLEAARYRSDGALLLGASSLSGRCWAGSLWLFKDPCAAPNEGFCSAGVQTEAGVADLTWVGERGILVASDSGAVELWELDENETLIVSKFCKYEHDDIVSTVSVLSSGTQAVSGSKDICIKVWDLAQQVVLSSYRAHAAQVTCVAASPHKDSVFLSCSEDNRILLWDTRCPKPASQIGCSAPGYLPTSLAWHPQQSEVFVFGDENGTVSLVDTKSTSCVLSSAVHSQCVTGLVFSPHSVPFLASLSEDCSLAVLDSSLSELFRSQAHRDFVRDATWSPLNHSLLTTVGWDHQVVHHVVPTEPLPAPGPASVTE

With `O=C(NCC(O)CNC1Cc2ccccc2C1)c1ccc(C(=O)N2CCCCC2)nc1` (racemic) [Compound 67, N-(3-((2,3-dihydro-1H-inden-2-yl)amino)-2-hydroxypropyl)-6-(piperidine-1-carbonyl)nicotinamide], the IC50 was found to be 6870 nM. For the molecule `CCCOc1ccccc1C(=O)NCC(O)CNC1Cc2ccccc2C1` (racemic) [Compound 73, N-(3-((2,3-dihydro-1H-inden-2-yl)amino)-2-hydroxypropyl)-2-propoxybenzamide], the IC50 came to 4380 nM. Take `CC(C)Oc1ccccc1C(=O)NCC(O)CNC1Cc2ccccc2C1` (racemic) [Compound 74, N-(3-((2,3-dihydro-1H-inden-2-yl)amino)-2-hydroxypropyl)-2-isopropoxybenzamide]: it took 3130 nM to reach half-maximal inhibition (IC50). In turn, `COCc1ccccc1C(=O)NCC(O)CNC1Cc2ccccc2C1` (racemic) [Compound 79, N-(3-((2,3-dihydro-1H-inden-2-yl)amino)-2-hydroxypropyl)-2-(methoxymethyl)benzamide] showed an IC50 of 24000 nM.

`O=C(NCC(O)CNC1Cc2ccccc2C1)c1ccn(Cc2ccccc2)c(=O)c1` (racemic) [Compound 82, 1-benzyl-N-(3-((2,3-dihydro-1H-inden-2-yl)amino)-2-hydroxypropyl)-2-oxo-1,2-dihydropyridine-4-carboxamide]: the half-inhibitory concentration (IC50) came out at 1810 nM. Consider `CC(=O)N1CCN(C(=O)Cc2ccc(C(=O)NCC(O)CNC3Cc4ccccc4C3)cc2)CC1` (racemic) [Compound 83, 4-(2-(4-acetylpiperazin-1-yl)-2-oxoethyl)-N-(3-((2,3-dihydro-1H-inden-2-yl)amino)-2-hydroxypropyl)benzamide], for which the half-inhibitory concentration (IC50) came out at 3460 nM.

Molecule `CC(=O)N1CCN(C(=O)c2ccc(C(=O)NCC(O)CNC3Cc4ccccc4C3)cc2)CC1` (racemic) [Compound 84, 4-(4-acetylpiperazine-1-carbonyl)-N-(3-((2,3-dihydro-1H-inden-2-yl)amino)-2-hydroxypropyl)benzamide] returned a concentration for half-maximal inhibition (IC50) of 585 nM. In turn, `Cn1ccc(C(=O)NCC(O)CNC2Cc3ccccc3C2)cc1=O` (racemic) [Compound 85, N-(3-((2,3-dihydro-1H-inden-2-yl)amino)-2-hydroxypropyl)-1-methyl 2-oxo-1,2-dihydropyridine-4-carboxamide] registered an IC50 of 7680 nM. For `O=C(NCC(O)CNC1Cc2ccccc2C1)c1ccc2c(c1)CN(C(=O)CC1CC1)C2` (racemic) [Compound 92, 2-(2-cyclopropylacetyl)-N-(3-((2,3-dihydro-1H-inden-2-yl)amino)-2-hydroxypropyl)isoindoline-5-carboxamide], half-maximal inhibition (IC50) was put at 1380 nM. Take `O=C(NCC(O)CNC1Cc2ccccc2C1)c1ccc2c(c1)CN(C(=O)CC1CC1)CC2` (racemic) [Compound 93, 2-(2-cyclopropylacetyl)-N-(3-((2,3-dihydro-1H-inden-2-yl)amino)-2-hydroxypropyl)-1,2,3,4-tetrahydroisoquinoline-7-carboxamide]: the IC50 came out at 505 nM. For the molecule `O=C(NCC(O)CNC1Cc2ccccc2C1)c1ccc2c(c1)CCN(C(=O)CC1CC1)C2` (racemic) [Compound 94, 2-(2-cyclopropylacetyl)-N-(3-((2,3-dihydro-1H-inden-2-yl)amino)-2-hydroxypropyl)-1,2,3,4-tetrahydroisoquinoline-6-carboxamide], the half-inhibitory concentration (IC50) amounted to 1350 nM. As for `CC(=O)N1CCc2cc(C(=O)NCC(O)CNC3Cc4ccccc4C3)ccc2C1` (racemic) [Compound 95, 2-acetyl-N-(3-((2,3-dihydro-1H-inden-2-yl)amino)-2-hydroxypropyl)-1,2,3,4-tetrahydroisoquinoline-6-carboxamide], the figure is 931 nM; as for `CC(=O)N1CCc2ccc(C(=O)NCC(O)CNC3Cc4ccccc4C3)cc2C1` (racemic) [Compound 96, 2-acetyl-N-(3-((2,3-dihydro-1H-inden-2-yl)amino)-2-hydroxypropyl)-1,2,3,4-tetrahydroisoquinoline-7-carboxamide], 733 nM; as for `O=C(NCC(O)CNC1Cc2ccccc2C1)c1ccccc1OCC(F)(F)F` (racemic) [Compound 97, N-(3-((2,3-dihydro-1H-inden-2-yl)amino)-2-hydroxypropyl)-2-(2,2,2-trifluoroethoxy)benzamide], 4320 nM. In the case of `C[C@@H]1COC[C@@H](C)N1C(=O)c1ccc(C(=O)NCC(O)CNC2Cc3ccccc3C2)cc1` (mixture of isomers) [Compound 101, N-(3-((2,3-dihydro-1H-inden-2-yl)amino)-2-hydroxypropyl)-4-((3R,5R)-3,5-dimethylmorpholine-4-carbonyl)benzamide] it was 457 nM. `CC(=O)N1CCC(Nc2cccc(C(=O)NC[C@@H](O)CNC3Cc4ccccc4C3)c2)CC1` [Compound 42, (S)-3-((1-Acetylpiperidin-4-yl)amino)-N-(3-((2,3-dihydro-1H-inden-2-yl)amino)-2-hydroxypropyl)benzamide] registered a half-inhibitory concentration (IC50) of 137 nM. In the case of `CN(c1cc(C(=O)NCC(O)CNC2Cc3ccccc3C2)ccn1)C1CCCC1` (stereo not drawn) [Compound 43, 2-(cyclopentyl(methyl)amino)-N-(3-((2,3-dihydro-1H-inden-2-yl)amino)-2-hydroxypropyl)isonicotinamide] it was 1010 nM. For `O=C(NCC(O)CNC1Cc2ccccc2C1)c1ccnc(NC2CCCC2)c1` (stereo not drawn) [Compound 44, 2-(cyclopentylamino)-N-(3-((2,3-dihydro-1H-inden-2-yl)amino)-2-hydroxypropyl)isonicotinamide], the IC50 amounted to 373 nM.

Molecule `O=C(NCC(O)CNC1Cc2ccccc2C1)c1cc(-c2ccccn2)[nH]n1` (stereo not drawn) [Compound 45, N-(3-((2,3-dihydro-1H-inden-2-yl)amino)-2-hydroxypropyl)-5-(pyridin-2-yl)-1H-pyrazole-3-carboxamide] registered a half-maximal inhibitory concentration (IC50) of 12800 nM. On to `O=C(NCC(O)CNC1Cc2ccccc2C1)c1cnn(-c2cccnc2)c1` (stereo not drawn) [Compound 46, N-(3-((2,3-dihydro-1H-inden-2-yl)amino)-2-hydroxypropyl)-1-(pyridin-3-yl)-1H-pyrazole-4-carboxamide], for which it took 4990 nM to reach half-maximal inhibition (IC50). In the case of `O=C(NCC(O)CNC1Cc2ccccc2C1)c1ccnc(N2CCOCC2)c1` (stereo not drawn) [Compound 47, N-(3-((2,3-dihydro-1H-inden-2-yl)amino)-2-hydroxypropyl)-2-morpholinoisonicotinamide] it was 11400 nM.

For `O=C(NCC(O)CNC1Cc2ccccc2C1)c1ccnc(N2CCCC2)c1` (stereo not drawn) [Compound 48, N-(3-((2,3-dihydro-1H-inden-2-yl)amino)-2-hydroxypropyl)-2-(pyrrolidin-1-yl)isonicotinamide], the midpoint of inhibition, the IC50, lay at 4780 nM. As for `O=C(NCC(O)CNC1Cc2ccccc2C1)c1ccnc(-n2cccn2)c1` (stereo not drawn) [Compound 49, N-(3-((2,3-dihydro-1H-inden-2-yl)amino)-2-hydroxypropyl)-2-(1H-pyrazol-1-yl)isonicotinamide], the figure is 25300 nM; as for `CC(=O)N1CCC(Oc2cc(C(=O)NCC(O)CNC3Cc4ccccc4C3)ccn2)CC1` (stereo not drawn) [Compound 50, 2-((1-Acetylpiperidin-4-yl)oxy)-N-(3-((2,3-dihydro-1H-inden-2-yl)amino)-2-hydroxypropyl)isonicotinamide], 466 nM; as for `O=C(NCC(O)CNC1Cc2ccccc2C1)c1ccnc(OC2CCNCC2)c1` (stereo not drawn) [Compound 51, N-(3-((2,3-dihydro-1H-inden-2-yl)amino)-2-hydroxypropyl)-2-(piperidin-4-yloxy)isonicotinamide], 709 nM.

On to `CC(=O)N1CCC(Nc2cncc(C(=O)NCC(O)CNC3Cc4ccccc4C3)n2)CC1` (stereo not drawn) [Compound 52, 6-((1-Acetylpiperidin-4-yl)amino)-N-(3-((2,3-dihydro-1H-inden-2-yl)amino)-2-hydroxypropyl)pyrazine-2-carboxamide], for which the IC50 amounted to 74600 nM.

On to `CC(=O)N1CCC(Nc2nccc(C(=O)NCC(O)CNC3Cc4ccccc4C3)n2)CC1` (stereo not drawn) [Compound 54, 2-((1-Acetylpiperidin-4-yl)amino)-N-(3-((2,3-dihydro-1H-inden-2-yl)amino)-2-hydroxypropyl)pyrimidine-4-carboxamide], for which the IC50 was determined as 5770 nM. In the case of `CC(=O)N1CCC(Nc2cccc(C(=O)NCC(O)CNC3Cc4ccccc4C3)n2)CC1` (stereo not drawn) [Compound 57, 6-((1-Acetylpiperidin-4-yl)amino)-N-(3-((2,3-dihydro-1H-inden-2-yl)amino)-2-hydroxypropyl)picolinamide] it was 2530 nM; in that of `CC(=O)N1CC(Nc2cc(C(=O)NCC(O)CNC3Cc4ccccc4C3)ncn2)C1` (stereo not drawn) [Compound 58, 6-((1-Acetylazetidin-3-yl)amino)-N-(3-((2,3-dihydro-1H-inden-2-yl)amino)-2-hydroxypropyl)pyrimidine-4-carboxamide 2,2,2-trifluoroacetic acid salt], 883 nM. Molecule `CC(=O)N1CCC(Nc2cc(C(=O)NCC(O)CNC3Cc4ccccc4C3)ncn2)CC1` (stereo not drawn) [Compound 59, 6-((1-Acetylpiperidin-4-yl)amino)-N-(3-((2,3-dihydro-1H-inden-2-yl)amino)-2-hydroxypropyl)pyrimidine-4-carboxamide 2,2,2-trifluoroacetic acid salt] yielded an IC50 of 487 nM.
